Measured values taken from article PMC3290904 (Biochemistry, 2012).

How the values were obtained:
AdiC (S26C mutant) [1] = target: T1, AdiC (S26C mutant) (Salmonella enterica, UniProt P60066, S26C/C80S/C97S/C129S/C238S/C281S/C286S/C369S/C398S); test: isothermal titration calorimetry; format: binding
T1 sequence (P60066 1-445 S26C/C80S/C97S/C129S/C238S/C281S/C286S/C369S/C398S): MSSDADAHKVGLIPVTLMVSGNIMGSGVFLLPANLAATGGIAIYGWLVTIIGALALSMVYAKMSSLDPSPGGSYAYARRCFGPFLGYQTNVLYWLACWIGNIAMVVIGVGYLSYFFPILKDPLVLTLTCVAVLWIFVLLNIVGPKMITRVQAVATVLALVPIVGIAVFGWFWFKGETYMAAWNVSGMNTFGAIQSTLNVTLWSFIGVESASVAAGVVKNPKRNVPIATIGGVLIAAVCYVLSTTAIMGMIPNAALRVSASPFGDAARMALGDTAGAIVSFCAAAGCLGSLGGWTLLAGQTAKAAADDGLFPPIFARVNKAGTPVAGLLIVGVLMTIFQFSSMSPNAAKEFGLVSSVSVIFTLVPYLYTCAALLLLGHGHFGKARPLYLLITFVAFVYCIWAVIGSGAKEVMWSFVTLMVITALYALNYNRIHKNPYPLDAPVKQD

[2] = target: AdiC (arginine-agmatine antiporter) (Salmonella enterica, UniProt P60066); test: isothermal titration calorimetry; format: binding
AdiC (S26C mutant) [3] = target: AdiC (S26C mutant) (Salmonella enterica, UniProt P60066, C129S/C238S/C281S/C286S/C369S/C398S/C80S/C97S/S26C); test: competitive inhibition of […]-arginine uptake in oriented proteoliposomes; format: biochemical

SMILES	Kd (AdiC (S26C mutant) [1]) [µM]	Kd [2] [µM]	Ki (AdiC (S26C mutant) [3]) [µM]
N=C(N)NCCC[C@H](N)C(=O)O [arginine]	22 ± 2	32	
N=C(N)NCCC[C@H](N)C(N)=O [argininamide]			1100
